{"source": "EPA's ToxValDB 9.5 (doi:10.2903/j.efsa.2020.6151)", "key": {"Typhlodromus pyri": {"test_system": "Typhlodromus pyri", "experiment": "LR50; higher = less toxic", "conditions": "not reported; mortality"}, "Apis mellifera": {"test_system": "Apis mellifera", "conditions": "acute, mortality"}, "Bibionidae": {"test_system": "Bibionidae", "conditions": "chronic/long-term; duration: 28 days; seedling emergence"}, "Folsomia candida": {"test_system": "Folsomia candida", "conditions": "chronic/long-term; duration: 28 days; reproduction"}, "Colinus virginianus": {"test_system": "Colinus virginianus", "conditions": "for LD50: acute, oral, mortality"}, "Pimephales promelas": {"test_system": "Pimephales promelas", "conditions": "chronic/long-term; duration: 33 days; other"}, "Daphnia magna": {"test_system": "Daphnia magna", "conditions": "chronic/long-term; duration: 21 days; other"}}, "data": [{"smiles": "C#CCOC(=O)[C@@H](C)Oc1ccc(Oc2ncc(Cl)cc2F)cc1", "note": "[Clodinafop-propargyl]", "values": [{"measurement": "LR50", "setting": "Typhlodromus pyri", "result": "> 90", "unit": "g/ha"}, {"measurement": "LD50", "setting": "Apis mellifera; dermal", "result": "> 100", "unit": "µg/piece"}, {"measurement": "LD50", "setting": "Apis mellifera; oral, unspecified", "result": "> 104", "unit": "µg/piece"}, {"measurement": "NOEC", "setting": "Bibionidae", "result": 1.2, "unit": "mg/L"}, {"measurement": "LD50", "setting": "Rattus norvegicus; acute, oral, mortality", "result": "> 1390", "unit": "mg/kg"}, {"measurement": "NOAEL", "setting": "Rattus norvegicus; chronic, duration: 2 years, M, histopathology: neoplastic", "result": 0.03, "unit": "mg/kg-day"}, {"measurement": "NOAEL", "setting": "Rattus norvegicus; developmental, development", "result": 5, "unit": "mg/kg-day"}, {"measurement": "NOAEL", "setting": "Rattus norvegicus; reproduction developmental, body weight", "result": 3.4, "unit": "mg/kg-day"}, {"measurement": "NOAEL", "setting": "Rattus norvegicus; subchronic, duration: 90 days, organ weight", "result": 0.92, "unit": "mg/kg-day"}, {"measurement": "NOEC", "setting": "Folsomia candida", "result": 1.6, "unit": "mg/kg"}, {"measurement": "LD50", "setting": "Colinus virginianus; duration: 5 days, diet", "result": "> 1040", "unit": "mg/kg-day"}, {"measurement": "LD50", "setting": "Colinus virginianus", "result": 1460, "unit": "mg/kg"}, {"measurement": "NOEC", "setting": "Colinus virginianus; reproduction developmental", "result": 48.9, "unit": "mg/kg-day"}, {"measurement": "NOEC", "setting": "Pimephales promelas", "result": 0.024, "unit": "mg/L"}, {"measurement": "NOEC", "setting": "Daphnia magna", "result": 0.23, "unit": "mg/L"}]}]}
